Experimental data: ChEMBL document CHEMBL1130633, “Beta-analogs of PLG (L-prolyl-L-leucyl-glycinamide): ex-chiral pool syntheses and dopamine D2 receptor modulating effects” (Bioorg Med Chem Lett, 1998)
Where a SMILES comes first, the peptide text is derived from it.

What follows are compounds tested against D(2) dopamine receptor (Bos taurus) (UniProt P20288) (assay: Compound was evaluated for its ability to enhance the binding of the dopamine receptor agonist [3H]pramipexole to Dopamine receptor D2 at a concentration of 10E-9 M).
Sequence of D(2) dopamine receptor (Bos taurus) (P20288 whole entry): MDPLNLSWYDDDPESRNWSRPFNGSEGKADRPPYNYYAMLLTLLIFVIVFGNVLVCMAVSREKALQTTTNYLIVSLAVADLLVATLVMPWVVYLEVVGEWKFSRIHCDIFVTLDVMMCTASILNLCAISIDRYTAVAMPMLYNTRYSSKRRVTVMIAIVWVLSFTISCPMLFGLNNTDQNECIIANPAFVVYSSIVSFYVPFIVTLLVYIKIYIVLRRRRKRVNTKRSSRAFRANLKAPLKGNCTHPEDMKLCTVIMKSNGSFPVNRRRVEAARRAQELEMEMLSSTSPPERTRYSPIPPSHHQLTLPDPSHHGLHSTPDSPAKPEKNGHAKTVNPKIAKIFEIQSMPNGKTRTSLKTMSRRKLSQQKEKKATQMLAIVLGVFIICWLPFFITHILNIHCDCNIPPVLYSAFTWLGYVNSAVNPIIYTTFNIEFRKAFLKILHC

Row | Compound | Binding [%]
1 | CC(C)C[C@H](NC(=O)[C@@H]1CCCN1)C(=O)NCC(N)=O (H-Pro-Leu-Gly-NH2) | 109
2 | CC(C)C[C@H](NC(=O)[C@@H]1CNC[C@@H]1Cc1ccccc1)C(=O)NCC(N)=O | 104
3 | CC(C)C[C@H](NC(=O)[C@@H]1CCNC1)C(=O)NCC(N)=O | 104
4 | CC(C)C[C@H](NC(=O)[C@H]1CCNC1)C(=O)NCC(N)=O | 107

The next lines start with the values.

Row | Binding [%] | Compound
5 | 109 | CC(C)C[C@H](NC(=O)[C@H]1CNC[C@@H]1Cc1ccccc1)C(=O)NCC(N)=O
6 | 99.6 | CC(C)C[C@H](NC(=O)[C@H]1CNC[C@H]1Cc1ccccc1)C(=O)NCC(N)=O
7 | 108 | CC(C)C[C@H](NC(=O)[C@@H]1CNC[C@H]1Cc1ccccc1)C(=O)NCC(N)=O
